According to US9688857B2, “Fluorescent probe” (THE UNIVERSITY OF TOKYO, priority 2011, dated 2017):

Assays:
[1] = Optical characteristics, Table 3; assay type: physicochemical; conditions: for λmax, fl: 0.1 M phosphate buffer (pH 9) containing 1% DMSO; for Φfl: 0.1 M phosphate buffer (pH 9), 1% DMSO, standard 2-Me TokyoMagenta (0.42); for λmax, abs: 0.1 M phosphate buffer containing 1% DMSO
Protocol: The measurement was performed in a 0.1 M phosphate buffer (pH 9) containing 1% DMSO. pKa was obtained from the absorbance measured in a phosphate buffer (pH 9) by single-phase or two-phase curve fitting. The quantum yield was obtained by using the quantum yield of 2-Me TokyoMagenta (0.42) in a 0.1 M phosphate buffer (pH 9) as the standard.

β-galactosidase [2] = molecular target: T1, β-galactosidase (Escherichia coli, UniProt P00722); test: Absorption spectra before and after treatment with β-galactosidase; assay type: biochemical; conditions: 0.1 M sodium phosphate buffer (pH 7.0), 0.1% DMSO
Protocol: The characteristics of 2-Me TokyoMagenta βgal, which was designed as a fluorescent probe for β-galactosidase measurement, as an enzyme substrate and a fluorescent probe were evaluated. There are shown absorption spectra (FIG. 3, upper left graph) and fluorescence spectra (FIG. 3, upper right graph (excitation wavelength, 582 nm) and FIG. 3, lower left graph (excitation wavelength, 448 nm)) of 2-Me TokyoMagenta βgal measured before and after a treatment with β-galactosidase (6 units) in a 0.1 M sodium phosphate buffer (pH 7.0) containing 0.1% dimethyl sulfoxide. The λmax values measured before and after the reaction were 448 nm (before the reaction), and 582 nm (after the reaction), respectively.
Target sequence in this assay (P00722 2-1024): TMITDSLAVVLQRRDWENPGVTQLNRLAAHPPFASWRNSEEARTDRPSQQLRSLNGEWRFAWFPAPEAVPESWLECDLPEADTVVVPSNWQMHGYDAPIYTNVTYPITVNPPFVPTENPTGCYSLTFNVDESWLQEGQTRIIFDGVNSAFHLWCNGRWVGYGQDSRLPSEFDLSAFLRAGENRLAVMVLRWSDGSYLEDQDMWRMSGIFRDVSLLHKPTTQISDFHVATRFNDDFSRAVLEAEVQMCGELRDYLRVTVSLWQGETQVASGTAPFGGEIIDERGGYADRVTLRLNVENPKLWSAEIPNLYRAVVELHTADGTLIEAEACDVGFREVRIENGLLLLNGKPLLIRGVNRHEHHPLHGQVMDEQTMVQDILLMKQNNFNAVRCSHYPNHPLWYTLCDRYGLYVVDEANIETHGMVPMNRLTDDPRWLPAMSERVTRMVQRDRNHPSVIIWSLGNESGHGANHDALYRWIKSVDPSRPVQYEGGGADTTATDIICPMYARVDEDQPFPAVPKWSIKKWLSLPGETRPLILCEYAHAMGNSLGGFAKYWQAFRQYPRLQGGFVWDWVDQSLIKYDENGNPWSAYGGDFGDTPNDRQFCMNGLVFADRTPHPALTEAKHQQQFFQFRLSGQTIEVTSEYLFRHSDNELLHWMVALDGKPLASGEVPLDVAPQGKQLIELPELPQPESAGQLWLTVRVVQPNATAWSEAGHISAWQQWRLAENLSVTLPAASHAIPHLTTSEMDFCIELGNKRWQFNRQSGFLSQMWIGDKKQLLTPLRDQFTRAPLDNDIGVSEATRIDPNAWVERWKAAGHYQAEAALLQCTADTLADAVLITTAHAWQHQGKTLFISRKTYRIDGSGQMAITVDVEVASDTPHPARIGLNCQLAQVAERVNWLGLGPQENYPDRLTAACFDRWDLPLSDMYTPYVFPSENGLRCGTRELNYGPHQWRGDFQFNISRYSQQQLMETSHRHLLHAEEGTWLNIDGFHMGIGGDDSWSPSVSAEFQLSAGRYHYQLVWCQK

β-galactosidase [3] = molecular target: T1, β-galactosidase; test: Measurement of intracellular β-galactosidase in HEK293 cells (lacZ(+) or lacZ(−)); assay type: cell-based; parameters: expressed in transfected cells; host or cells: HEK293 lacZ(+); conditions: 10 μM, 37° C., 30 minutes, excitation 580 nm, detection 600 to 620 nm
Protocol: The bars shown in the photographs indicate 30 μm.
2-Me TokyoMagenta βgal was introduced into cells, and it was confirmed that it functioned as a fluorescent probe for β-galactosidase measurement. The HEK293 cells (lacZ(+) or lacZ(−)) were incubated with 10 μM 2-Me TokyoMagenta βgal at 37° C. for 30 minutes in the Dulbecco's modified Eagle medium (DMEM) containing 0.1% dimethyl sulfoxide, and fluorescence spectrum was measured with an excitation wavelength of 580 nm and detection wavelength of 600 to 620 nm.
Target sequence in this assay (P00722 whole entry): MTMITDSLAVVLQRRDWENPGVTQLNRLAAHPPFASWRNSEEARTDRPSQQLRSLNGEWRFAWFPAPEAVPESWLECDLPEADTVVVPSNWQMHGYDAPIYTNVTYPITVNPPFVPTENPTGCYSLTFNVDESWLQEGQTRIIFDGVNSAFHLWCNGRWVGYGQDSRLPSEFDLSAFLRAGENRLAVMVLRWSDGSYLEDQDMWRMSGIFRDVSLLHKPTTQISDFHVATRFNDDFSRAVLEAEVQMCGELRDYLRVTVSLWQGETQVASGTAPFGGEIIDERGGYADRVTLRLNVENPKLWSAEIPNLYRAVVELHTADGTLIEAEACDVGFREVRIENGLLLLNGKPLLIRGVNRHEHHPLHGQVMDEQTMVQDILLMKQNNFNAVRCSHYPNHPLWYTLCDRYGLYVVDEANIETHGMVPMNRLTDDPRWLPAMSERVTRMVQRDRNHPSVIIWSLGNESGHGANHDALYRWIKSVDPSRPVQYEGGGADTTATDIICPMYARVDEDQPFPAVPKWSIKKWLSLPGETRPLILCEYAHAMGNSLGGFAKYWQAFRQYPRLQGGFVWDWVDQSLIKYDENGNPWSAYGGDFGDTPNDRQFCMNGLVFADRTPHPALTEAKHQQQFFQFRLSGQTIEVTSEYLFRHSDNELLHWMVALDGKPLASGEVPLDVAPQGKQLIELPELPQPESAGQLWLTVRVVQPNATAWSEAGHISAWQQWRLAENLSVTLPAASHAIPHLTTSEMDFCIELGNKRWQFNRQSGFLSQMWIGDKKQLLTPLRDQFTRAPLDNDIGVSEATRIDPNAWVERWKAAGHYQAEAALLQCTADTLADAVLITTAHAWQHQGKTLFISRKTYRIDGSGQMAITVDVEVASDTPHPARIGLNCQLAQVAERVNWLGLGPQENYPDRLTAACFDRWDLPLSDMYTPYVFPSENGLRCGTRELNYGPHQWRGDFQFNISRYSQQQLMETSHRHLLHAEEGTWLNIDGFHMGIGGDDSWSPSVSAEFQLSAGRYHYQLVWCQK

β-galactosidase [4] = molecular target: T1, β-galactosidase; test: Hydrolysis reaction by β-galactosidase monitored by fluorescence intensity over time; assay type: biochemical; conditions: 1 μM probe, 37° C., 0.1 M sodium phosphate buffer (pH 7.4), 0.1% DMSO, one unit β-galactosidase
From the text: As a control, 2-Me-4-OMe TokyoGreen βgal was used, which had been already widely used as a fluorescent probe for β-galactosidase measurement.
Advance of the hydrolysis reaction of 2-Me TokyoMagenta βgal by β-galactosidase was monitored by periodically measuring fluorescence intensity. As a control, 2-Me-4-OMe TokyoGreen βgal (9-(4′-methoxy-2′-methylphenyl)-6-(β-D-galactopyranosyloxy)-xanthen-3-one), which had been already widely used as a fluorescent probe for β-galactosidase measurement, was used. The reaction was performed at 37° C. in a 0.1 M sodium phosphate buffer (pH 7.4) containing 1 μM 2-Me TokyoMagenta βgal or 2-Me-4-OMe TokyoGreen βgal and 0.1% dimethyl sulfoxide. One unit (1.3 μg) of β-galactosidase was added 40 seconds afterward.
Target sequence in this assay (P00722 2-1024): as the sequence (P00722 2-1024) above

[5] = Optical characteristics, Table 2; assay type: physicochemical; conditions: phosphate buffer (pH 9)
Protocol: The measurement was performed at pH 9.

[6] = Comparison of absorption wavelengths at pH 3 and 9 in sodium phosphate buffer (Table 1); assay type: physicochemical; parameters: λmax: unit not given beside the values; conditions: for λmax: sodium phosphate buffer
Protocol: The results of comparison of the absorption wavelengths of 2-Me TokyoMagenta and 2-Me TokyoGreen (9-(2′-methylphenyl)-xanthen-3-one) having oxygen atom at the 10-position of the xanthene ring are shown in FIG. 2 and Table 1. The measurement was performed at pH 3 and 9 in a sodium phosphate buffer.

[7] = Absorption and fluorescence profiles at various pH values (Example 2); assay type: physicochemical; conditions: for maximal absorption wavelength: 1 μM in 0.1 M phosphate buffer, 1% DMSO
Protocol: The measurement was performed with changing pH. In this specification, Me means methyl group. […] The measurement was performed by using a 1 μM solution of 2-Me TokyoMagenta dissolved in a 0.1 M phosphate buffer containing 1% dimethyl sulfoxide (DMSO).
Absorption and fluorescence profiles of 2-Me TokyoMagenta obtained in the step (g) mentioned above were measured at various pH values. […] It is considered that 2-Me TokyoMagenta exists in an equilibrated state of the non-dissociated form (neutral form) and the dissociated form (anion form) mentioned below depending on pH.

[8] = Fluorescence profiles at various pH values, excitation 471 nm (Example 6); assay type: physicochemical; conditions: shift of pH from the acidic side to the alkaline side
Protocol: The measurement was performed with changing pH (excitation wavelength, 471 nm) by using a 1 μM solution of 2-Me TokyoMagenta dissolved in a 0.1 M phosphate buffer containing 1% dimethyl sulfoxide (DMSO).
Absorption and fluorescence profiles of 2-Me TokyoMagenta obtained in the step (g) mentioned above were measured at various pH values (excitation wavelength, 471 nm). It was confirmed that, with the shift of pH from the acidic side to the alkaline side, fluorescence intensity decreased around 590 nm, and fluorescence intensity increased around 560 nm.

physchem = assay type: physicochemical
Protocol: In the table, the items attached with the letter a were measured in a phosphate buffer (pH 9), and the item attached with the letter b was measured in a 0.1 M phosphate buffer containing 1% DMSO.
The measurement was performed in a 0.1 M phosphate buffer (pH 9) containing 1% DMSO. pKa was obtained from the absorbance measured in a phosphate buffer (pH 9) by single-phase or two-phase curve fitting.

In the case of `Cc1ccccc1C1=C2C=CC(=O)C(F)=C2[Si](C)(C)c2c1ccc(O)c2F` [2-Me DFTM], the “λmax, fl” value [1] is reported as 598 nm, the Φfl [1] is reported as 0.57 and the “λmax, abs” value ([1]; pH 3) is reported as 465 nm. For the same compound, the “λmax, abs” value ([1]; pH 9) was 583 nm.

For `C[Si]1(C)C2=C(Cl)C(=O)C=CC2=C(c2ccccc2C(=O)O)c2ccc(O)c(Cl)c21` [2-COOH DCTM], the “λmax, fl” value [1] was 607 nm, the Φfl [1] was 0.48 and the “λmax, abs” value ([1]; pH 9) was 591 nm.

For `Cc1ccccc1C1=C2C=CC(=O)C=C2[Si](C)(C)c2cc(O[C@@H]3O[C@H](CO)[C@H](O)[C@H](O)[C@H]3O)ccc21` [2-Me TokyoMagenta βgal], the “λmax after the reaction” value (β-galactosidase [2]; after β-galactosidase (6 units)) was 582 nm, the “λmax before the reaction” value (β-galactosidase [2]; before β-galactosidase (6 units)) was 448 nm and the fluorescence in cells (β-galactosidase [3]; HEK293 lacZ(+) cells) was “fluorescence emitted by the fluorescent probe hydrolyzed by β-galactosidase was confirmed”. For the same compound, the fluorescence in cells (β-galactosidase [3]; HEK293 lacZ(−) cells) was “fluorescence was not observed” and the “fluorescence response on hydrolysis by β-galactosidase” value (β-galactosidase [4]) was “increase of fluorescence intensity due to red shift”.

`CC[Si]1(CC)C2=CC(=O)C=CC2=C(c2ccccc2C)c2ccc(O)cc21` [2-Me DiEtTM] showed a Φfl [5] of 0.48, a λabs [5] of 582 nm and a λfl [5] of 601 nm.

For `Cc1ccccc1-c1c2ccc(=O)cc-2oc2ccccc12` [2-Me TokyoGreen, 9-(2′-methylphenyl)-xanthen-3-one, reference compound], the λmax ([6]; Anion form (pH 9)) was 492 and the λmax ([6]; Neutral form (pH 3)) was 439.

For `C[Si]1(C)C2=CC(=O)C=CC2=C(c2ccccc2C(=O)O)c2ccc(O)cc21` [2-COOH TM], the “λmax, fl” value [1] was 598 nm, the Φfl [1] was 0.38 and the “λmax, abs” value ([1]; pH 9) was 582 nm.

In the case of `C[Si]1(C)C2=C(F)C(=O)C=CC2=C(c2ccccc2C(=O)O)c2ccc(O)c(F)c21` [2-COOH DFTM], the “λmax, fl” value [1] is reported as 596 nm, the Φfl [1] is reported as 0.54 and the “λmax, abs” value ([1]; pH 9) is reported as 581 nm.

With `COc1ccc(-c2c3ccc(=O)cc-3oc3cc(O[C@@H]4O[C@H](CO)[C@H](O)[C@H](O)[C@H]4O)ccc23)c(C)c1` [2-Me-4-OMe TokyoGreen βgal, 9-(4′-methoxy-2′-methylphenyl)-6-(β-D-galactopyranosyloxy)-xanthen-3-one, reference compound] the “fluorescence response on hydrolysis by β-galactosidase” value (β-galactosidase [4]) was “fluorescence was generated by cancellation of PET”.

With `Cc1ccccc1C1=C2C=CC(=O)C=C2[Si](C)(C)c2cc(O)ccc21` [2-Me TokyoMagenta] the Φfl [5] was 0.42, the λabs [5] was 582 nm and the λfl [5] was 598 nm. For the same compound, the maximal absorption wavelength ([7]; acidic side of pH) was “around 471 nm”, the maximal absorption wavelength ([7]; alkaline side of pH) was “around 582 nm” and the Φfl ([7]; anion form) was 0.42. It also gave a ε ([7]; anion form) of 110000, a Φfl ([7]; neutral form) of 0.10 and a ε ([7]; neutral form) of 29000. For the same compound, the “fluorescence emission with excitation light of 550 nm” value ([7]; shift of pH from the acidic side to the alkaline side) was “significantly increased”, the “λmax, fl” value [1] was 598 nm and the Φfl [1] was 0.42. The “λmax, abs” value ([1]; pH 3) was 472 nm, the “λmax, abs” value ([1]; pH 9) was 582 nm and the “fluorescence intensity around 560 nm” value [8] was “increased”. The “fluorescence intensity around 590 nm” value [8] was “decreased”, the λmax ([6]; Anion form (pH 9)) was 582 and the λmax ([6]; Neutral form (pH 3)) was 471. The “absorption wavelength change with change of pH” value ([6]; compared with 2-Me TokyoGreen, pH 3 and 9) was “larger absorption wavelength change” and the pKa (physchem) was 6.8.

For `Cc1ccccc1C1=C2C=CC(=O)C(Cl)=C2[Si](C)(C)c2c1ccc(O)c2Cl` [2-Me DCTM], the “λmax, fl” value [1] was 607 nm, the Φfl [1] was 0.48 and the “λmax, abs” value ([1]; pH 3) was 477 nm. For the same compound, the “λmax, abs” value ([1]; pH 9) was 595 nm.
